In one assay the test system is peritoneal macrophages. As to the kind of experiment: In vitro training and re-stimulation of peritoneal macrophages (Example 2), TNF-α ELISA. The assay is classed as cell-based, mice. The conditions noted are these: Mdivi-1 10 μM. How it is done:
Isolation and culture of peritoneal macrophages. Mice were euthanized with CO2 inhalation and injected i.p. with 5 ml of sterile cold, complete DMEM medium (Sigma Aldrich) followed by gentle massage of the peritoneum. The peritoneal fluid was then collected, centrifuged at 1600 rpm for 5 min. The cell pellet was washed, counted, and plated at appropriate numbers in complete DMEM. The cells were incubated for 2-4 hours at 37° C. and 5% CO2 to allow peritoneal macrophages attached to the plates. The floating cells were aspirated and plates were gently washed with sterile pre-warmed medium and then added with fresh complete DMEM. For comparison studies between different mouse strains, peritoneal cells were stained with viability dye and anti-F4/80 antibodies (Biolegend) and F4/80^+ macrophages were sorted by FACS Aria III (BD Bioscience).
In vitro training and re-stimulation of peritoneal macrophages. Peritoneal macrophages were treated with 25 μg/ml of WGP or polystyrene beads (3 μm, Sigma-Aldrich) and incubated for 24 h at 37°° C. with 5% CO2. Macrophages were then washed with pre-warmed complete DMEM at least twice to remove excess WGP or polystyrene beads, added with fresh complete DMEM and incubated 6 days. On day 7, macrophages were re-stimulated with different stimuli such as LPS (10 ng/ml) (Sigma), tumor cells, tumor cell culture supernatants (40%) or rMIF (100 ng/ml) (kindly provided by Dr. Robert Mitchell) for 24 h. The culture supernatants were harvested and assayed for TNF-α by ELISA. For cell culture supernatants, tumor cell lines including LLC, B16F10, and EL4, and control cell line MLE-12 were used.
These cell lines were cultured (1 million/4 ml complete DMEM) in a 6-well plate and incubated for 72 h. The supernatants were harvested and stored at −80° C. in aliquots.
ELISA for TNF-α and MIF. TNF-α in the culture supernatants was measured using TNF-α ELISA kit (Biolegend) and MIF levels in the culture supernatants were quantified using mouse MIF ELISAkit (R&D Systems) per the manufacturer's instruction.
In vitro training with S1P. Peritoneal macrophages were stimulated with 200 nM or 300 nM of S1P for 24 h at 37° C. and 5% CO2. The macrophages were then washed and allowed for resting. On day 7, the macrophages were stimulated with LPS (10 ng/ml) or LLC culture supernatant (40%) for 24 h and the supernatants were collected for the quantification of TNF-α using ELISA. For another set of in vitro-training experiment, macrophages were trained with S1P in the presence of Mdivi-1 (10 μM) during S1P training and throughout the resting period. Cells were restimulated with LPS and the supernatants were collected to determine TNF-α levels by ELISA.
[…] The inhibitors were further added to the macrophage cultures and incubated at 37° C. and 5% CO2 for 6 more days. On day 7, the macrophages were washed once with pre-warmed complete DMEM and added LPS (10 ng/ml) or LLC culture supernatant (40%) for re-stimulation.

For another assay, the system named is LLC-GFP tumor cells. As to the kind of experiment: BMDM training and adoptive transfer, LLC-GFP challenge. Type of assay: in vivo, mice. The conditions noted are these: BMDM trained in presence of Mdivi-1. An excerpt: BMDMs were trained in the presence of Mdivi-1 or DMSO. BMDMs (1×10^6) were then adoptively transferred intravenously to WT mice twice 2 days apart. Two days later recipient mice were challenged with LLC-GFP tumor cells. Mice were euthanized at day 21 post tumor challenge to analyze the tumor burden and T cell phenotype in the lungs.
To examine whether ex vivo beta-glucan trained macrophages could be used for adoptive cell therapy, bone marrow-derived macrophages (BMDM) were used for a proof-of-concept study. To this end, BMDM were trained with WGP beta-glucan for 7 days and then adoptively transferred into naïve mice. Recipient mice were then challenged with LLC-GFP tagged lung cancer cells. Mice were euthanized at day 21 (FIG. 15A).

For the compound `COc1cc(-n2c(=S)[nH]c3ccccc3c2=O)c(Cl)cc1Cl` [Mdivi-1], the “effect on S1P-induced trained immunity (TNF-α)” value with peritoneal macrophages (LPS) was “abrogated S1P-induced trained immunity”. In addition, the “effect on WGP-mediated trained responses (TNF-α)” value in the assay on peritoneal macrophages (LPS or LLC supernatants) is “abrogated WGP-mediated trained responses”. Moreover, the “effect on WGP-trained BMDM-mediated effect” value in the assay on LLC-GFP tumor cells is reported as “completely abrogated WGP-trained BDMD-mediated effect”.

For the origin of these results see patent US20250025490A1, “INDUCTION OF TRAINED IMMUNITY FOR THE TREATMENT OF HYPERPROLIFERATIVE DISORDERS” (priority 2021, published 2025).
